Test results: patent publication US8435966B2, “Associations of xanthogenates and cyclodextrins, and their use” (Biosphings AG, priority 2006, dated 2013)
Where two headings read alike, the source gives them in different places.

How the values were obtained:
lung edemas = settings: from literature; cited from earlier work
[1] = test system: models of Alzheimer's disease; settings: from literature; cited from earlier work
erythrocytes = assay: Hemolytic effect of xanthates (OD 450 of supernatants of diluted blood); settings: for 50% hemolysis (IC50): 30 minutes at room temperature
Method: Venous blood was taken from female Balb C mice by retroorbital puncture and heparin was added to the blood. The blood was then diluted 1:75 using phosphate-buffered saline. Methyl-, butyl, and hexylxanthate as well as exo/exo D 609 were dissolved in phosphate-buffered saline (stock solution 10 mg/ml). 100 μl diluted blood and 100 μl diluted xanthate solution each were placed in 96-well microtiter plates to obtain final concentrations of 2, 1, 0.5, 0.25, 0.125, 0.063, and 0.031 mg/ml of xanthate. Saline served as the control. After incubation at room temperature for 30 minutes, a centrifugation at 5,000 g for 5 min was performed and the supernatants were removed. The absorption of the supernatants at 450 nm (OD 450) was measured using an ELISA-Reader. Dose-response curves (FIGS. 2 and 3) were used to determine the concentrations at which 50% of the maximal absorption was reached and at which, therefore, 50% of the erythrocytes were lysed (IC50).

animal model of stroke = settings: from literature; cited from earlier work
[2] = test system: DNA and RNA virus species; tumor cells; settings: from literature and U.S. Pat. No. 4,602,037; cited from earlier work
multiple sclerosis model = settings: from literature; cited from earlier work
female Balb C mice = assay: Toxicity after intravenous application (survival 48 h after injection into the lateral tail vein); assay type: in vivo; settings: for Animals receiving injections/surviving animals: 48 h
Method: The exo/exo isomer of D 609 or hexylxanthate were dissolved in 0.9% NaCl or 0.9% NaCl/30% hydroxy-beta-cyclodextrin at a concentration of 30 mg/ml. Subsequently, dilutions were prepared using 0.9% NaCl solution to obtain concentrations of 30, 20, 10, and 5 mg/ml D 609 or hexylxanthate. Three female Balb C mice each received injections of 0.2 ml/20 g body weight of each solutions into the lateral tail vein. The animals were monitored for 48 h after injection and survival was recorded.

[3] = Stabilization of exo/exo D 609 by cyclodextrin at room temperature (decomposition in water, pH after 45 days); assay type: physicochemical; settings: for decomposition / pH value of the solution: after 45 days
Method: The xanthate, D 609, decomposes in aqueous solutions to form the tricyclodecanol, CS2, and KOH. […] The pH value of the individual solutions was determined after 45 days using PANPEHA strips (Schleicher & Schüll). […] The pH value of the solution containing cyclodextrin was measured to be 7.0. This corresponds to <0.1% decomposition. Accordingly, the rate of decomposition is at least 1000-fold lower in the presence of cyclodextrin.

[4] = Stabilization of various xanthates by methyl-beta-cyclodextrin at 60° C. (decomposition in water, detected by pH value and calibration curves); settings: 24 h at 60° C.; for % Decomposition − Cyclodextrin / % Decomposition + Cyclodextrin: 10 mg/ml xanthate in water; for % Decomposition − Cyclodextrin: absence of cyclodextrin; for % Decomposition + Cyclodextrin: presence of 100 mg/ml methyl-beta-cyclodextrin; for Stabilization factor: decomposition without / with methyl-beta-cyclodextrin
Method: Solutions each containing 10 mg/ml methylxanthate, propylxanthate, butylxanthate, heptyixanthate, hexylxanthate, decylxanthate, isopropylxanthate, or tricyclo[5,2,1,0^2,6]-decylxanthate (D 609) in water were incubated for 24 h at 60° C. either in the presence or absence of 100 mg/ml methyl-beta-cyclodextrin. Xanthates decompose in aqueous medium into the corresponding alcohol, CS2, and, depending on the type of xanthate salt, KOH or NaOH. The decomposition of xanthates can therefore be detected quantitatively by measuring the pH value and using calibration curves.

HSV-1, strain Angelotti = assay: Antiviral efficacy, plaque number in Calu-6 cells infected with HSV-1; assay type: cell-based; settings: addition of cyclodextrin 1:1 or 1:2 to D609, Calu-6 cells, 72 h
Method: Human lung carcinoma cells (Calu-6) in D-MEM medium (supplemented with 10% fetal calf serum) were seeded in 24-well plates (Greiner) (3×10^6 cells/plate each). After incubation for 24 h at 37° C. in a 5% CO2 atmosphere, the medium was decanted and 0.1 ml viral suspension (HSV-1, strain Angelotti, 200 plaque-forming units/ml) were added. After incubation at 37° C. for one hour, fresh medium (DMEM, 10% serum, 0.85 g NaHCO3/I) containing D609 (exo/exo isomer) or a mixture of D609 and beta-hydroxypropyl-cyclodextrin (b-HP) (Sigma, Munich, No 33, 260-7) was added.
The following concentrations were set-up:
After 72 h, the medium was decanted and the plates were fixed with 3% formalin and stained with 0.5% crystal violet. After the plates were dried, the number of plaques per well was determined and the means±standard deviation were calculated. The results (dose-response curves) are plotted in FIG. 4. […] Accordingly, the addition of beta-hydroxypropyl-cyclodextrin has no influence on the antiviral activity of D609.

[5] = Stabilization effect of different cyclodextrins on D 609 at 60° C. (RP-18 thin layer plate); assay type: physicochemical; settings: exo/exo D 609 with cyclodextrin, eight days at 60° C., TLC spots under UV (FIG. 1)
Method: Exo/exo D 609 was dissolved in solutions (100 mg/ml) containing various cyclodextrins (10 mg/ml). The samples were incubated for eight days at 60° C. 10 μl of each sample were diluted with 90 μl of water and 100 μl ethylacetate/3 mg/ml p-bromoacetophenone were added. After shaking for 30 minutes, 5 μl of the ethylacetate phase each were applied to a RP-18 thin layer plate and the plate was placed for 15 minutes in a TLC chamber containing acetonitrile as mobile phase. A freshly prepared solution of 9 mg/ml D 609 plus 1 mg/ml of a D 609 solution that had been incubated at 95° C. for 48 h (decomposition control) was used as calibration sample. The D 609-specific spots were visualized under UV light and photographed.

[6] = in the presence of cyclodextrin
[7] = xanthate alone (absence of cyclodextrin)
[8] = 10 mg/ml in water with 100 mg/ml cyclodextrin

Compound: S=C([S-])OC1CC2CC1C1CCCC21.[K+] (stereo not drawn) [D 609]
- effect on lung edemas (lung edemas): protection from lung edemas
- effect in models of Alzheimer's disease [1]: protective properties
- concentration of complete hemolysis (erythrocytes): 500 µg/mL
- hemolytic effect / dose-response curves in the presence versus absence of cyclodextrin (erythrocytes): reduced strongly
- increase of the IC50 by a factor (erythrocytes): 6.4
- 50% hemolysis (IC50) (erythrocytes; absence of cyclodextrin): 125 µg/mL
- 50% hemolysis (IC50) (erythrocytes; presence of cyclodextrin): 800 µg/mL
- effect in an animal model of stroke (animal model of stroke): protective effect
- known activity [2]: antiviral and antitumoral activity
- effect in a multiple sclerosis model (multiple sclerosis model): protective effect
- Animals receiving injections/surviving animals (female Balb C mice; Dose 50 mg/kg): 3/3
- Animals receiving injections/surviving animals (female Balb C mice; Dose 100 mg/kg): 3/0
- Animals receiving injections/surviving animals (female Balb C mice; Dose 200 mg/kg): 3/0
- Animals receiving injections/surviving animals (female Balb C mice; Dose 300 mg/kg): 3/0
- number of surviving animals, effect of cyclodextrin (female Balb C mice; at the higher D 609-doses): clearly increased
- LD50 (female Balb C mice; [6]): 250 mg/kg
- LD50 (female Balb C mice; [7]): 75 mg/kg
- decomposition ([3]; 10 mg/ml in pure water): complete decomposition
- pH value of the solution ([3]; 10 mg/ml in pure water): 12.5
- decomposition [3, 8]: < 0.1%
- pH value of the solution [3, 8]: 7.0
- rate of decomposition lower in the presence of cyclodextrin ([3]; 45 days, with versus without cyclodextrin): at least 1000 fold
- % Decomposition − Cyclodextrin [4]: 20%
- % Decomposition + Cyclodextrin [4]: 1%

Compound: CCCCCCCCCCOC(=S)S [Decyl, decylxanthate]
- % Decomposition − Cyclodextrin [4]: 10%
- % Decomposition + Cyclodextrin [4]: 1%

Compound: CC(C)OC(=S)S [Isopropyl, isopropylxanthate]
- % Decomposition − Cyclodextrin [4]: 20%
- % Decomposition + Cyclodextrin [4]: 1%
- Stabilization factor [4]: 20

Compound: CCCCCCOC(=S)S [Hexylxanthate, hexylxanthate]
- concentration of complete hemolysis (erythrocytes): 500 µg/mL
- hemolytic effect / dose-response curves in the presence versus absence of cyclodextrin (erythrocytes): reduced strongly
- increase of the IC50 by a factor (erythrocytes): 2.5
- 50% hemolysis (IC50) (erythrocytes; absence of cyclodextrin): 300 µg/mL
- 50% hemolysis (IC50) (erythrocytes; presence of cyclodextrin): 750 µg/mL
- Animals receiving injections/surviving animals (female Balb C mice; Dose 50 mg/kg): 3/3
- Animals receiving injections/surviving animals (female Balb C mice; Dose 100 mg/kg): 3/2
- Animals receiving injections/surviving animals (female Balb C mice; Dose 200 mg/kg): 3/0
- Animals receiving injections/surviving animals (female Balb C mice; Dose 300 mg/kg): 3/0
- LD50 (female Balb C mice; [6]): 130 mg/kg
- LD50 (female Balb C mice; [7]): 130 mg/kg
- % Decomposition − Cyclodextrin [4]: 20%
- % Decomposition + Cyclodextrin [4]: 1%

Compound: CCCCOC(=S)S [Butyl, butylxanthate]
- hemolytic effect / dose-response curves in the presence versus absence of cyclodextrin (erythrocytes; FIGS. 2 and 3): no significant differences
- concentration of complete hemolysis (erythrocytes; absence of cyclodextrin): 1000 µg/mL
- 50% hemolysis (IC50) (erythrocytes; absence of cyclodextrin): 800 µg/mL
- concentration of complete hemolysis (erythrocytes; presence of cyclodextrin): 1000 µg/mL
- 50% hemolysis (IC50) (erythrocytes; presence of cyclodextrin): 650 µg/mL
- % Decomposition − Cyclodextrin [4]: 20%
- % Decomposition + Cyclodextrin [4]: 1%
- Stabilization factor [4]: 20

Compound: COC(=S)S [Methyl, methylxanthate]
- hemolytic effect / dose-response curves in the presence versus absence of cyclodextrin (erythrocytes; FIGS. 2 and 3): no significant differences
- concentration of complete hemolysis (erythrocytes; absence of cyclodextrin): 1000 µg/mL
- 50% hemolysis (IC50) (erythrocytes; absence of cyclodextrin): 600 µg/mL
- concentration of complete hemolysis (erythrocytes; presence of cyclodextrin): 1000 µg/mL
- 50% hemolysis (IC50) (erythrocytes; presence of cyclodextrin): 650 µg/mL
- % Decomposition − Cyclodextrin [4]: 50%
- % Decomposition + Cyclodextrin [4]: 1%
- Stabilization factor [4]: 50

Compound: beta-hydroxypropyl-cyclodextrin
- influence on the antiviral activity of D609 (HSV-1, strain Angelotti): no influence

Compound: CCCOC(=S)S [Propyl, propylxanthate]
- % Decomposition − Cyclodextrin [4]: 20%
- % Decomposition + Cyclodextrin [4]: 2%
- Stabilization factor [4]: 10

Compound: CCOC(=S)S [Ethyl]
- % Decomposition − Cyclodextrin [4]: 10%
- % Decomposition + Cyclodextrin [4]: 1%
- Stabilization factor [4]: 10

Compound: methyl-beta-cyclodextrin
- protective effect from decomposition of D 609 [5]: works the best by far
